Experimental data: US20230404969A1, “COMPOSITIONS AND METHOD FOR EFFECTIVE MANAGEMENT OF PERITONITIS” (priority 2022, published 2023)

Experiments:
[1] = system: TNF-α; test: Intracellular TNF-α estimation in LPS activated murine neutrophils (flow cytometry); assay type: cell-based; conditions: 5 μg/ml, LPS 1 μg/ml, 3 h, ↑ upregulation
Protocol: Flowcytometric studies were carried out to determine the anti-inflammatory effect of active constituents of Withania somnifera extract on TNF-α and IL-1β cytokine expression in LPS activated murine neutrophils.
TNF-α and Interleukin 1 beta (IL-1β) cytokines play a major role in the pathogenesis of septic shock induced by LPS (Lipopolysaccharide) endotoxin injection. LPS is an important triggering factor for in vivo systemic inflammatory response. LPS activates neutrophils via engagement of TLR4 (Toll-like receptor 4), resulting in the induction of a characteristic proinflammatory phenotype and prolongation of cell lifespan. In brief, neutrophils extraction was performed by taking murine blood and centrifuging it at 250 g for 20 min. Middle layer was taken and layered with histopaque and incubated for 10 min. The samples were centrifuged at 700 g, the upper layer was taken and Facs Lysing solution added for the lysis of any traces of RBC. The samples were washed with PBS (200 g) for 10 min. Neutrophils were stimulated with. LPS (1 μg/ml) and incubated with test samples for 3 h, in CO2 incubator. […] A fluorescence trigger was set on the […] parameter of the gated neutrophil populations (10,000 events). Fluorescence compensation, data analysis, and data presentation was performed using Cell Quest Pro software (Beckton—Dickinson Biosciences, CA, USA). […]

[2] = system: IL-1β; test: Extracellular in vivo IL-1β estimation in serum from treated mice after LPS injection (ELISA); conditions: 1 mg/kg p.o for 6 days, serum 90 mins after LPS injection, ↑ upregulation
Protocol: BALM male mice aged 6-8 weeks were maintained at 22±2° C. under 12/12 h light dark cycle. Mice received oral treatment of test drugs at graded doses (w/v) for 6 days, followed by intravenous injection of 1 mg/kg (Brieva et al. Immunoferon, a glycoconjugate of natural origin, inhibits LPS-induced TNF-α production and inflammatory responses. International Immunopharmacology (2001) 1, 1979-1987). Six mice were employed in each group and experiments were performed in triplicates. Blood was collected from retro-orbital plexus of the experimental animals and serum was separated. TNF-α, IL-1β production was evaluated by a commercial ELISA kit in serum from treated mice, 90 mins after LPS injection.

[3] = system: Enterococcus faecalis (Gram positive); test: Bacterial translocation from the gut into organs: E. faecalis; assay type: in vivo; conditions: Withanone 2 mg/kg; positive/6 mice
Protocol: (§1) Peritoneal inflammation was induced by Zymosan A (Sigma Chemical) (Masashi et al. Zymosan, but Not Lipopolysaccharide, Triggers Severe and Progressive Peritoneal Injury Accompanied by complement Activation in a Rat Peritonitis Model) was prepared freshly in sterile, 0.9% w/v saline, and 0.5 ml was injected i.p. from day 0 to Day 5. The lymphocyte population in the peripheral blood was determined with a flow cytometer. Cells were phenotyped by flow cytometry with the following primary antibodies: CD4 (FITC) and CD8 (PE). Cells were gated broadly on all live lymphocyte cells, with only debris and multiple cell clusters being excluded. Analysis of mean fluorescence intensity was done and percentage cell population was evaluated. The test drugs were administered for 30 days after the induction of peritonitis. On 36th day the peritoneal cavity was lavaged with 1.5 ml saline, and after a 30-s gentle manual massage, 0.5 ml exudate was retrieved, centrifuged at 3000 g for 3 min, and frozen at […] prior to cytokine and chemotactic-factor assessment.
Intestine serves as a barrier in preventing gut bacteria and/or endotoxin from spreading to organs and tissues. It is also known that bacterial translocation occurs in critically ill or immunocompromised patients, and the physical disruption of mucosal barrier in vivo rodent models seem to be a key factor Tor translocation (Deitch et al. Effect of hemorrhagic shock on bacterial translocation, intestinal morphology, and intestinal permeability in conventional and antibiotic-decontaminated rats; Critical Care Medicine; 1990 18(5)). Bacterial translocation from the gut into the peritoneal cavity and organs was analyzed. The mesenteric lymph nodes, liver, and spleen of mice, study group of 30, were removed using sterile instruments. The organs were then homogenized in 1 ml of sterile cooked meat broth and 50 μl of organ homogenate was spread on blood agar plates to detect aerobic bacteria and Eosin Methylene blue agar plates to detect specially for E. coli. These plates were then incubated at 37° C. for 2 days. […]

[4] = system: Myeloperoxidase (MPO); test: Myeloperoxidase in peritoneal exudate (ELISA), chronic zymosan peritonitis; assay type: in vivo, mouse; conditions: 2 mg/kg, day 36
Protocol: as §1
Circulating toxins can activate neutrophils or stimulate monocytes to release mediators contributing to the development of endotoxic shock. […] The protein concentrations were carried out by means of colorimetric measurement at 450 nm on an ELISA plate reader by interpolation from a standard curve. […]

Compound: CC1=C(C)C(=O)O[C@@H]([C@@H](C)[C@@]2(O)CC[C@H]3[C@@H]4[C@@H]5O[C@@H]5[C@@]5(O)CC=CC(=O)[C@]5(C)[C@H]4CC[C@@]32C)C1 [Withanone]
- Percentage TNF-α inhibition compared to LPS control [1]: 53%
- Percentage IL-1β inhibition compared to LPS control [2]: 24.5%
- Bacterial translocation, Liver, E. faecalis [3]: 1/6
- Bacterial translocation, Mesenteric Lymph Nodes, E. faecalis [3]: 2/6
- Bacterial translocation, Spleen, E. faecalis [3]: 0/6
- Decrease of expression levels of MPO compared to the Zymosan control [4]: at least 50%
